Results as given in patent US9023789B2, “Amylin analogs and pharmaceutical compositions thereof” (Novo Nordisk A/S, priority 2012, dated 2015).
Converted amounts (≈) assume the structure as drawn. Like-named read-outs stand apart in the source and are kept apart here. Numbered stars: 1 amine (or outer) side, 2 acyl side, 3 side chain; on linkers, the order of the positions; unused ones are H or OH. Bridge positions count the residues as written; N and C are the ends. Side chains are listed from the residue outwards. Peptide text beside a SMILES is read from it. * marks the point of attachment. C20 diacid = O=C(O)CCCCCCCCCCCCCCCCCCC(=O)*; γGlu = O=C(O)[C@H](CCC(=O)[*:2])N[*:1]

Experiments:
[1] = ASSAY (III) ThT fibrillation assay for physical stability; format: physicochemical
Outline: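 Physical stability scored by ThT fluorescence (444 nm excitation, 485 nm emission) tracked every 20 min during 37 °C incubation with 960 rpm shaking, ThT at 1 μM final. Values are replicate means with SD at chosen times; HPLC against pramlintide standard gives initial and post-assay soluble concentrations.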

[2] = ASSAY (IV) determination of solubility; format: physicochemical
Outline: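 UPLC read-out of polypeptide concentration after centrifugation. Samples: aqueous polypeptide stock ([…]) + 100 mM buffer 1:1, glycylglycine pH 3.0–5.0 or bistrispropane pH 6.0–8.0; 18 h, RT.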

Sprague Dawley (SD) rats = test: ASSAY (I) efficacy testing on appetite (food intake) using an ad libitum fed rat model; format: in vivo; conditions: rat
Outline: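 Individual food consumption was logged each hour up to 7 h and again at 24 h, occasionally 48 h, with Grubbs-test outliers removed. Each 200–250 g Sprague Dawley rat, free-feeding in its home cage under reversed lighting, received a single ip, po or sc dose of 0.01–3 mg/kg at lights-off, alongside a vehicle group.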

[3] = bistrispropane buffer, pH 6.5, read-out: Solubility pH 6.5 Concentration
[4] = bistrispropane buffer, pH 7.5, read-out: Solubility pH 7.5 Concentration
[5] = bistrispropane buffer, pH 6.0, read-out: Solubility pH 6.0 Concentration
[6] = bistrispropane buffer, pH 7.0, read-out: Solubility pH 7.0 Concentration
[7] = bistrispropane buffer, pH 8.0, read-out: Solubility pH 8.0 Concentration
[8] = glycylglycine buffer, pH 3.0, read-out: Solubility pH 3.0 Concentration
[9] = glycylglycine buffer, pH 4.0, read-out: Solubility pH 4.0 Concentration
[10] = glycylglycine buffer, pH 5.0, read-out: Solubility pH 5.0 Concentration

SMILES | ThT pH 4.0 lag time (h) [1] [h] | solubility at 18 h [2, 3] [µM] | solubility at 18 h [2, 4] [µM] | solubility at 18 h [2, 5] [µM] | solubility at 18 h [2, 6] [µM] | solubility at 18 h [2, 7] [µM] | solubility at 18 h [2, 8] [µM] | solubility at 18 h [2, 9] [µM] | solubility at 18 h [2, 10] [µM] | Food intake reduction 0-24 h 30 nmol/kg (%) (Sprague Dawley (SD) rats) | Food intake reduction 24-48 h 30 nmol/kg (%) (Sprague Dawley (SD) rats) | Food intake reduction 0-24 h 3 nmol/kg (%) (Sprague Dawley (SD) rats) | Food intake reduction 24-48 h 3 nmol/kg (%) (Sprague Dawley (SD) rats)
CC[C@H](C)[C@H](NC(=O)[C@H](C)NC(=O)CNC(=O)[C@H](Cc1ccccc1)NC(=O)[C@H](CC(N)=O)NC(=O)[C@@H]1CCCN1C(=O)[C@H](CO)NC(=O)[C@H](CO)NC(=O)[C@H](Cc1c[nH]cn1)NC(=O)[C@H](CCCNC(=N)N)NC(=O)[C@H](CC(C)C)NC(=O)[C@H](Cc1ccccc1)NC(=O)[C@H](CCC(=O)O)NC(=O)[C@H](C)NC(=O)[C@H](CC(C)C)NC(=O)[C@H](CCCNC(=N)N)NC(=O)[C@H](CCC(N)=O)NC(=O)[C@@H](NC(=O)[C@H](C)NC(=O)[C@@H]1CSSC[C@H](NC(=O)[C@@H](N)CCCCNC(=O)CC[C@H](NC(=O)CCCCCCCCCCCCCCCCCCC(=O)O)C(=O)O)C(=O)N[C@@H](CC(N)=O)C(=O)N[C@@H]([C@@H](C)O)C(=O)N[C@@H](C)C(=O)N[C@@H]([C@@H](C)O)C(=O)N1)[C@@H](C)O)C(=O)N1CCC[C@H]1C(=O)N[C@@H](CO)C(=O)N[C@@H](CO)C(=O)N[C@H](C(=O)N[C@@H](CC(N)=O)C(=O)N[C@H](C(=O)NCC(=O)N1CCC[C@H]1C(=O)N[C@@H](CCCNC(=N)N)C(=O)N[C@H](C(=O)N[C@@H](Cc1ccc(O)cc1)C(N)=O)[C@@H](C)O)C(C)C)[C@@H](C)O [Example 117] (H-K([γGlu-C20 diacid])CNTATCATQRLAEFLRHSSPNFGAIPSSTNVGPRTY-NH2; disulfide 2-7; N-terminus assumed) | 45 | ≥ 200 | ≥ 200 | ≥ 200 | ≥ 200 | 147 (≈ 654 µg/mL) | ≥ 200 | ≥ 200 | ≥ 200 | 61 | 4 | – | –
CC[C@H](C)[C@H](NC(=O)[C@H](C)NC(=O)CNC(=O)[C@H](Cc1ccccc1)NC(=O)[C@H](CC(N)=O)NC(=O)[C@@H]1CCCN1C(=O)[C@H](CO)NC(=O)[C@H](CO)NC(=O)[C@H](Cc1c[nH]cn1)NC(=O)[C@H](CCCNC(=N)N)NC(=O)[C@H](CC(C)C)NC(=O)[C@H](Cc1ccccc1)NC(=O)[C@H](CCC(=O)O)NC(=O)[C@H](C)NC(=O)[C@H](CC(C)C)NC(=O)[C@H](CCCNC(=N)N)NC(=O)[C@H](CCC(N)=O)NC(=O)[C@@H](NC(=O)[C@H](C)NC(=O)[C@@H]1CSSC[C@H](NC(=O)[C@@H](N)CCCCNC(=O)CC[C@H](NC(=O)CCCCCCCCCCCCCCCCCCC(=O)O)C(=O)O)C(=O)N[C@@H](CC(N)=O)C(=O)N[C@@H]([C@@H](C)O)C(=O)N[C@@H](C)C(=O)N[C@@H]([C@@H](C)O)C(=O)N1)[C@@H](C)O)C(=O)N1CCC[C@H]1C(=O)N[C@@H](CO)C(=O)N[C@@H](CO)C(=O)N[C@H](C(=O)N[C@@H](CC(N)=O)C(=O)N[C@H](C(=O)NCC(=O)N1CCC[C@H]1C(=O)N[C@@H](Cc1c[nH]cn1)C(=O)N[C@H](C(=O)N[C@@H](Cc1ccc(O)cc1)C(N)=O)[C@@H](C)O)C(C)C)[C@@H](C)O [Example 118] (H-K([γGlu-C20 diacid])CNTATCATQRLAEFLRHSSPNFGAIPSSTNVGPHTY-NH2; disulfide 2-7) | 45 | ≥ 200 | ≥ 200 | ≥ 200 | ≥ 200 | ≥ 200 | ≥ 200 | ≥ 200 | ≥ 200 | 77 | 30 | 43 | 1
CC[C@H](C)[C@H](NC(=O)[C@H](C)NC(=O)CNC(=O)[C@H](Cc1ccccc1)NC(=O)[C@H](CC(N)=O)NC(=O)[C@@H]1CCCN1C(=O)[C@H](CO)NC(=O)[C@H](CO)NC(=O)[C@H](Cc1c[nH]cn1)NC(=O)[C@H](CCCNC(=N)N)NC(=O)[C@H](CC(C)C)NC(=O)[C@H](Cc1ccccc1)NC(=O)[C@H](CO)NC(=O)[C@H](C)NC(=O)[C@H](CC(C)C)NC(=O)[C@H](CCCNC(=N)N)NC(=O)[C@H](CCC(N)=O)NC(=O)[C@@H](NC(=O)[C@H](C)NC(=O)[C@@H]1CSSC[C@H](NC(=O)[C@@H](N)CCCCNC(=O)CC[C@H](NC(=O)CC[C@H](NC(=O)CCCCCCCCCCCCCCCCCCC(=O)O)C(=O)O)C(=O)O)C(=O)N[C@@H](CC(N)=O)C(=O)N[C@@H]([C@@H](C)O)C(=O)N[C@@H](C)C(=O)N[C@@H]([C@@H](C)O)C(=O)N1)[C@@H](C)O)C(=O)N1CCC[C@H]1C(=O)N[C@@H](CO)C(=O)N[C@@H](CO)C(=O)N[C@H](C(=O)N[C@@H](CC(N)=O)C(=O)N[C@H](C(=O)NCC(=O)N1CCC[C@H]1C(=O)N[C@@H](CCC(=O)O)C(=O)N[C@H](C(=O)N[C@@H](Cc1ccc(O)cc1)C(N)=O)[C@@H](C)O)C(C)C)[C@@H](C)O [Example 120] (H-K([γGlu-γGlu-C20 diacid])CNTATCATQRLASFLRHSSPNFGAIPSSTNVGPETY-NH2; disulfide 2-7 (inferred); N-terminus assumed) | 14 | ≥ 200 | ≥ 200 | ≥ 200 | ≥ 200 | ≥ 200 | ≥ 200 | ≥ 200 | ≥ 200 | 66 | 61 | – | –
CC[C@H](C)[C@H](NC(=O)[C@H](C)NC(=O)CNC(=O)[C@H](Cc1ccccc1)NC(=O)[C@H](CC(N)=O)NC(=O)[C@@H]1CCCN1C(=O)[C@H](CO)NC(=O)[C@H](CO)NC(=O)[C@H](Cc1c[nH]cn1)NC(=O)[C@H](CCCNC(=N)N)NC(=O)[C@H](CC(C)C)NC(=O)[C@H](Cc1ccccc1)NC(=O)[C@H](CC(=O)O)NC(=O)[C@H](C)NC(=O)[C@H](CC(C)C)NC(=O)[C@H](CCCNC(=N)N)NC(=O)[C@H](CCC(N)=O)NC(=O)[C@@H](NC(=O)[C@H](C)NC(=O)[C@@H]1CSSC[C@H](NC(=O)[C@@H](N)CCCCNC(=O)CC[C@H](NC(=O)CC[C@H](NC(=O)CCCCCCCCCCCCCCCCCCC(=O)O)C(=O)O)C(=O)O)C(=O)N[C@@H](CC(N)=O)C(=O)N[C@@H]([C@@H](C)O)C(=O)N[C@@H](C)C(=O)N[C@@H]([C@@H](C)O)C(=O)N1)[C@@H](C)O)C(=O)N1CCC[C@H]1C(=O)N[C@@H](CO)C(=O)N[C@@H](CO)C(=O)N[C@H](C(=O)N[C@@H](CC(N)=O)C(=O)N[C@H](C(=O)NCC(=O)N1CCC[C@H]1C(=O)N[C@@H](CCC(=O)O)C(=O)N[C@H](C(=O)N[C@@H](Cc1ccc(O)cc1)C(N)=O)[C@@H](C)O)C(C)C)[C@@H](C)O [Example 122] (H-K([γGlu-γGlu-C20 diacid])CNTATCATQRLADFLRHSSPNFGAIPSSTNVGPETY-NH2; disulfide 2-7 (inferred); N-terminus assumed) | 45 | ≥ 200 | ≥ 200 | ≥ 200 | ≥ 200 | ≥ 200 | ≥ 200 | ≥ 200 | ≥ 200 | – | – | 50 | 50
CC[C@H](C)[C@H](NC(=O)[C@H](C)NC(=O)CNC(=O)[C@H](Cc1ccccc1)NC(=O)[C@H](CC(N)=O)NC(=O)[C@@H]1CCCN1C(=O)[C@H](CO)NC(=O)[C@H](CO)NC(=O)[C@H](Cc1c[nH]cn1)NC(=O)[C@H](CCCNC(=N)N)NC(=O)[C@H](CC(C)C)NC(=O)[C@H](Cc1ccccc1)NC(=O)[C@H](CCC(=O)O)NC(=O)[C@H](C)NC(=O)[C@H](CC(C)C)NC(=O)[C@H](CCCNC(=N)N)NC(=O)[C@H](CCC(N)=O)NC(=O)[C@@H](NC(=O)[C@H](C)NC(=O)[C@@H]1CSSC[C@H](NC(=O)[C@@H](N)CCCCNC(=O)CC[C@H](NC(=O)CC[C@H](NC(=O)CCCCCCCCCCCCCCCCCCC(=O)O)C(=O)O)C(=O)O)C(=O)N[C@@H](CC(N)=O)C(=O)N[C@@H]([C@@H](C)O)C(=O)N[C@@H](C)C(=O)N[C@@H]([C@@H](C)O)C(=O)N1)[C@@H](C)O)C(=O)N1CCC[C@H]1C(=O)N[C@@H](CO)C(=O)N[C@@H](CO)C(=O)N[C@H](C(=O)N[C@@H](CC(N)=O)C(=O)N[C@H](C(=O)NCC(=O)N1CCC[C@H]1C(=O)N[C@@H](Cc1c[nH]cn1)C(=O)N[C@H](C(=O)N[C@@H](Cc1ccc(O)cc1)C(N)=O)[C@@H](C)O)C(C)C)[C@@H](C)O [Example 124] (H-K([γGlu-γGlu-C20 diacid])CNTATCATQRLAEFLRHSSPNFGAIPSSTNVGPHTY-NH2; disulfide 2-7 (inferred)) | 45 | ≥ 200 | ≥ 200 | ≥ 200 | ≥ 200 | 165 (≈ 752 µg/mL) | ≥ 200 | ≥ 200 | ≥ 200 | 73 | 38 | – | –
